Assay results taken from patent publication US6340703B1, “Treatment or prevention of osteoporosis” (Novogen, Inc., priority 1997, dated 2002).
Blank lines part the entries; values can stand above or below the compound they belong to.

Assays:
estrogen receptors = conditions: relative to 17p-estradiol 100; cited from earlier work
post-menopausal women [1] = test: Greene Score for menopausal symptoms, 3 month study (Example 4); assay type: in vivo, human; conditions: 15 mg or 60 mg daily for 3 months, compared to placebo control group
Experimental: A group of 36 post-menopausal women experiencing menopausal symptoms were treated with a composition containing either 15 mg daidzein or 60 mg daidzein administered on a daily basis for 3 months.

bone resorption = conditions: Tobe et al 1997; cited from earlier work
[2] = pharmacokinetic study of formononetin following oral administration; assay type: in vivo; conditions: blood; human, oral 9.3 mg formononetin; read-out: half life in the blood stream (converted)
Experimental: A pharmacokinetic study involving 16 human patients aged between 18 and 40 was conducted, to determine the pharmacokinetics of formononetin following oral administration. Each patient was orally administered 9.3 mg of formononetin with 200 ml of purified water and maintained a low isoflavone diet for one week prior to, and during the study. Blood samples were taken at 0, 0.25, 0.5, 0.75, 1.0, 1.5, 2.0, 2.5, 3, 4, 5, 6, 8, 10 and 12 and 24 hours post administration, and analysed for formononetin concentration.

post-menopausal women [3] = test: Greene Score for menopausal symptoms, 60 mg formononetin (Example 6); assay type: in vivo, human; conditions: 60 mg daily for three months, relative to a control group
Experimental: 15 post-menopausal women who are experiencing menopausal systems are each administered 60 mg formononetin daily for three months.

post-menopausal women [4] = test: bone density and bone turnover markers in high risk group for osteoporosis (Example 6); assay type: in vivo, human; conditions: 60 mg daily for three months, preliminary results
Experimental: A similar study involving 10 post-menopausal women in a high risk group for osteoporosis were also administered 60 mg formononetin daily for three months.

post-menopausal women [5] = test: six month double-blind placebo-controlled study of bone density and bone resorption markers (Example 7); assay type: in vivo, human; conditions: 25 mg, 50 mg or 75 mg daily, six months, with 1200 mg calcium per day
Experimental: The second study (double-blind, placebo-controlled) involved a six month study of the effects of phytoestrogen formononetin on bone resorption markers in twenty post-menopausal women. The aim of the study was to evaluate the efficacy of a defined daily quantity of isoflavone at 25 mg, 50 mg or 75 mg on bone resorption makers in post menopausal women and compare these to normal controls The effects of isoflavones on endometrial thickness, circulatory lipids and coagulation factors were also evaluated. Subjects were also given supplemental calcium in a dose of 1200 mg per day.

endometrial cancer cells = conditions: Markiewicz et al 1993; potentiated cancer cell growth; cited from earlier work

Compound: COc1ccc(-c2coc3cc(O)cc(O)c3c2=O)cc1 [biochanin, reference compound]
relative estrogenicity (estrogen receptors): 0.07

Compound: O=c1c(-c2ccc(O)cc2)coc2cc(O)ccc12 [daidzein, 7,4-dihydroxy isoflavone]
Greene Score for menopausal symptoms (post-menopausal women [1]): significant decrease
relative estrogenicity (estrogen receptors): 0.09
effect on bone resorption (bone resorption): stimulates bone resorption

half-life [2]: ~20 h
Compound: COc1ccc(-c2coc3cc(O)ccc3c2=O)cc1 [formononetin]
Greene Score for menopausal symptoms (post-menopausal women [1]): significant decrease
Greene Score for menopausal symptoms (post-menopausal women [3]): significant decrease
protection against osteoporosis by bone density and bone turnover markers (post-menopausal women [4]): protection against osteoporosis
bone density at three sites of the forearm (post-menopausal women [5]): significant improvement in bone density
relative estrogenicity (estrogen receptors): 0.01

Compound: O=c1c(-c2ccc(O)cc2)coc2cc(O)cc(O)c12 [genistein]
estrogen effect on endometrial cancer cells (endometrial cancer cells): exhibited an estrogen effect on endometrial cancer cells
